Experiments:
[1] = Cytotoxicity against human Hup T3 cells after 72 hrs by MTT assay; format: functional, cell-based; conditions: HuP-T3, 72 h
[2] = Selectivity for HDAC10 over HDAC1
Histone deacetylase 8 = molecular target: T1, Histone deacetylase 8 (Homo sapiens, UniProt Q9BY41)
T1 sequence (Q9BY41 whole entry): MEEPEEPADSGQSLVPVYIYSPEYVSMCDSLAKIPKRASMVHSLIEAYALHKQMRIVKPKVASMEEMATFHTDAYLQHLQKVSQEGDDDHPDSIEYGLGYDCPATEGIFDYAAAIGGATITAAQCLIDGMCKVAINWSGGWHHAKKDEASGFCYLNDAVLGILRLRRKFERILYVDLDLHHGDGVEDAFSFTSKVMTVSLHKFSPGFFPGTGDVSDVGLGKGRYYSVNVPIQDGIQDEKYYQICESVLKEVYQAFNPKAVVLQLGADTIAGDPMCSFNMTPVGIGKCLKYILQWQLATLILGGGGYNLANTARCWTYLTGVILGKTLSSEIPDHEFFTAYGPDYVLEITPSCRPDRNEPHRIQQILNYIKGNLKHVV

BXPC-3 = experiment: Cytotoxicity against human BxPC3 cells after 72 hrs by MTT assay; format: functional, cell-based; conditions: BXPC-3, 72 h
[3] = molecular target: T2, Polyamine deacetylase HDAC10 (Homo sapiens, UniProt Q969S8)
T2 sequence (Q969S8 whole entry): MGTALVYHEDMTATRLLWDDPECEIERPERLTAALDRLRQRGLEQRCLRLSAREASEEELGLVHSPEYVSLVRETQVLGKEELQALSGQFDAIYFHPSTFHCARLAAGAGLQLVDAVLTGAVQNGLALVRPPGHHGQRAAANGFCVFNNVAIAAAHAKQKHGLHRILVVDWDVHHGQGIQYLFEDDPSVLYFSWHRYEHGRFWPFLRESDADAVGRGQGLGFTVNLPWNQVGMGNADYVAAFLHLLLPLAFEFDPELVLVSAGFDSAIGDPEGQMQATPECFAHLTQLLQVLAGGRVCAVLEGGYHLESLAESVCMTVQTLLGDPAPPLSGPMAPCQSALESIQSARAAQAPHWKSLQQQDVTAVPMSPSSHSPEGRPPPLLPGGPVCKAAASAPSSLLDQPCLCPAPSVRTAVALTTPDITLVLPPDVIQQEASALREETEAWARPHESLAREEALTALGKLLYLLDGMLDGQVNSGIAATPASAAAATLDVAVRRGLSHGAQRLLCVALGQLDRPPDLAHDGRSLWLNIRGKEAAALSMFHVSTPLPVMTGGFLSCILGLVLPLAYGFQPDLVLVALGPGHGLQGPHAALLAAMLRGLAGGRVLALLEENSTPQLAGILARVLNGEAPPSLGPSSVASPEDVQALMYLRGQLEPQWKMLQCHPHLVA

[4] = molecular target: T3, Protein deacetylase HDAC6 (Homo sapiens, UniProt Q9UBN7)
T3 sequence (Q9UBN7 whole entry): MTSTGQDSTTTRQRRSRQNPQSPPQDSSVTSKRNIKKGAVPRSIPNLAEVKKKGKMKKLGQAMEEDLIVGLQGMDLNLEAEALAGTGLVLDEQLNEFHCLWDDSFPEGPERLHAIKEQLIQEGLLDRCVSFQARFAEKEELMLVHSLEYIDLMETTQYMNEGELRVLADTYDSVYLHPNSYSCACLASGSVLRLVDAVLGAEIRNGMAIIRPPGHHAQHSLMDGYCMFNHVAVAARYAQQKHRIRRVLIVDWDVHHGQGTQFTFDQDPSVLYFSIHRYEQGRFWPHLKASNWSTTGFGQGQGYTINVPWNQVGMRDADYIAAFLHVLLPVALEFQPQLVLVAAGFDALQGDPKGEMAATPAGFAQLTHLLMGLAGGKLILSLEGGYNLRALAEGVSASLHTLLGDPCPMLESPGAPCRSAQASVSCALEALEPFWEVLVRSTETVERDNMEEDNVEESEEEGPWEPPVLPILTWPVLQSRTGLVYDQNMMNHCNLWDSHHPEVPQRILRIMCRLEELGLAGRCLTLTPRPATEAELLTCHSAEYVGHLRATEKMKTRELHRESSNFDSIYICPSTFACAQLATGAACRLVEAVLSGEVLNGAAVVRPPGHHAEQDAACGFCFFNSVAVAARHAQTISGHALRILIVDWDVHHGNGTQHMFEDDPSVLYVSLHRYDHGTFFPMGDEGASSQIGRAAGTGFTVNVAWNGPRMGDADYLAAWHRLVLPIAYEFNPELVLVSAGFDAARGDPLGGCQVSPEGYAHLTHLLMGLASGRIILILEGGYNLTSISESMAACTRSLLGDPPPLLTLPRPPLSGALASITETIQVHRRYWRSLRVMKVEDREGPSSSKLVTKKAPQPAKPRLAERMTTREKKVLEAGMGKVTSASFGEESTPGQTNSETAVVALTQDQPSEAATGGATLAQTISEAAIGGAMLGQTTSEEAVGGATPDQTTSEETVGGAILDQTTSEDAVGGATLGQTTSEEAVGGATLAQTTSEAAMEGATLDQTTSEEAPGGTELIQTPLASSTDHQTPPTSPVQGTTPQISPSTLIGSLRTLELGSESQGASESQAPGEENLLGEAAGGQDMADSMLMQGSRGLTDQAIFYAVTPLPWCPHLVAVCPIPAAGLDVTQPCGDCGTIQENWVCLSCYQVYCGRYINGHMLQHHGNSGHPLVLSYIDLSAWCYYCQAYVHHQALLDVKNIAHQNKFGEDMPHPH

Histone deacetylase 1 = Histone deacetylase 1 (Homo sapiens, UniProt Q13547)
[5] = Cytotoxicity against human HPDE6c7 cells; format: ADME, cell-based
Histone deacetylase 3 = Histone deacetylase 3 (Homo sapiens, UniProt O15379)
Histone deacetylase 2 = Histone deacetylase 2 (Homo sapiens, UniProt Q92769)
MIA PaCa-2 = experiment: Cytotoxicity against human Mia Paca2 cells after 72 hrs by MTT assay; format: functional, cell-based; conditions: MIA PaCa-2, 72 h
[6] = Cytotoxicity against human SU 86.86 cells after 72 hrs by MTT assay; format: functional, cell-based; conditions: SU.86.86, 72 h
[7] = Cytotoxicity against nontransformed human microvascular epithelial cells; format: ADME, cell-based; conditions: Endothelial cell
[8] = Cytotoxicity against human Panc 04.03 cells after 72 hrs by MTT assay; format: functional, cell-based; conditions: Panc 04.03, 72 h
Plasmodium falciparum [9] = experiment: microbe, parasite or virus in culture; conditions: TM91C235
Description: Antimalarial activity against Plasmodium falciparum TM91C235 by hypoxanthine uptake

Plasmodium falciparum [10] = experiment: Antimalarial activity against Plasmodium falciparum D6 by hypoxanthine uptake; format: functional, organism-based
Plasmodium falciparum [11] = experiment: Antimalarial activity against Plasmodium falciparum W2 by hypoxanthine uptake; format: functional, organism-based
Plasmodium falciparum [12] = experiment: Antimalarial activity against Plasmodium falciparum TM90C2A by hypoxanthine uptake; format: functional, organism-based

Chain of Histone deacetylase 1 (Q13547 whole entry): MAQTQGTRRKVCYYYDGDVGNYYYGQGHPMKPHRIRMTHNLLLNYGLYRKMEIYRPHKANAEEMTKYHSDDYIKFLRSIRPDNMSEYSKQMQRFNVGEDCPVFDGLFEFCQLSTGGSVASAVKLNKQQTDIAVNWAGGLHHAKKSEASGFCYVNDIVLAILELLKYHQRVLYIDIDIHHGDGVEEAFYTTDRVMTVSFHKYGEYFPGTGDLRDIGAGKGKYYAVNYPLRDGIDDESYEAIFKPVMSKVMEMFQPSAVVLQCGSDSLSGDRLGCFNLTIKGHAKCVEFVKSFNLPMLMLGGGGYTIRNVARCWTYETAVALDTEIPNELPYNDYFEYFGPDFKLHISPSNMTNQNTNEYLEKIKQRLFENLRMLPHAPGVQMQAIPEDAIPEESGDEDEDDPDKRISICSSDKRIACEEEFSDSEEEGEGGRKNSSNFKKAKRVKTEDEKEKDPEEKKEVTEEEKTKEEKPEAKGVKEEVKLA
Chain of Histone deacetylase 2 (Q92769 whole entry): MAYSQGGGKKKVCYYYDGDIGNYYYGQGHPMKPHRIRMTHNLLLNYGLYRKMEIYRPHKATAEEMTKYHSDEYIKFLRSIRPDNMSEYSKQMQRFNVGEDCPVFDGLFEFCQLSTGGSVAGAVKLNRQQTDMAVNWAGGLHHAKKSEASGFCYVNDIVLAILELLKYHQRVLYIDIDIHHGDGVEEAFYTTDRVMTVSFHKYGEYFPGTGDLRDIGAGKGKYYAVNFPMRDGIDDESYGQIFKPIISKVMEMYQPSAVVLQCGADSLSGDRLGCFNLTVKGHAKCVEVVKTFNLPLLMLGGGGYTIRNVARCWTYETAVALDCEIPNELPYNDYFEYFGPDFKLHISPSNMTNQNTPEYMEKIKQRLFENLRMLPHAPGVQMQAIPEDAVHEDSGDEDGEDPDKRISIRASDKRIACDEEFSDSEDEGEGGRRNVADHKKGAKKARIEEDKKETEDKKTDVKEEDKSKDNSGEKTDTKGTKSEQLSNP
Chain of Histone deacetylase 3 (O15379 whole entry): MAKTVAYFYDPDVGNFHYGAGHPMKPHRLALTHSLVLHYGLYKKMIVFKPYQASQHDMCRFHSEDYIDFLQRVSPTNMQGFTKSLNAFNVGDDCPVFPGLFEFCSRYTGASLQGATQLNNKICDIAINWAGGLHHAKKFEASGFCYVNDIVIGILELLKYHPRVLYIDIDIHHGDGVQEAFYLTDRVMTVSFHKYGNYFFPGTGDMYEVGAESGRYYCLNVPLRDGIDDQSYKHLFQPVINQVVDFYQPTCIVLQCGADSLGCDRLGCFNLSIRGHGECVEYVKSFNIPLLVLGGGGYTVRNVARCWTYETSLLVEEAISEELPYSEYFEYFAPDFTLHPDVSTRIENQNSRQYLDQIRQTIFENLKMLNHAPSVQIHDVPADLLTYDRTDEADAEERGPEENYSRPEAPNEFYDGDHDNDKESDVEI

Ratio IC50 [2] | IC50 (Histone deacetylase 8) [nM] | IC50 [3] [nM] | IC50 [4] [nM] | IC50 (Histone deacetylase 1) [nM] | IC50 (Histone deacetylase 3) [nM] | IC50 (Histone deacetylase 2) [nM] | IC50 (Plasmodium falciparum [9]) [nM] | IC50 (Plasmodium falciparum [10]) [nM] | IC50 (Plasmodium falciparum [11]) [nM] | IC50 (Plasmodium falciparum [12]) [nM] | Compound | IC50 [1] [nM] | IC50 (BXPC-3) [nM] | IC50 [5] [nM] | IC50 (MIA PaCa-2) [nM] | IC50 [6] [nM] | IC50 [7] [nM] | IC50 [8] [nM]
0.8 | 1970 | 36.1 | 1.3 | 27.1 | 8 | 47.5 | – | – | – | – | O=C(CCCCCCC(=O)Nc1ccc(-c2cn(-c3ccccc3)nn2)cc1)NO | 1000 | 3000 | 1000 | 400 | 1000 | 1000 | 1000
0.5 | 552 | 34.3 | 2.6 | 17.6 | 4 | 77.4 | 280 | 180 | 350 | 110 | O=C(CCCCCCC(=O)Nc1cccc(-c2cn(Cc3ccc(F)cc3)nn2)c1)NO | 1000 | 1000 | 500 | 300 | 1000 | < 1000 | 1000
– | 2780 | 27.7 | 9.6 | 18 | – | 63.9 | 35 | 17 | 32 | 17 | O=C(CCCCCCC(=O)Nc1cccc(-c2cn(-c3ccccc3)nn2)c1)NO | – | – | < 200 | – | – | < 1000 | < 500
1.4 | 942 | 24.5 | 7.5 | 33.4 | 7.7 | 167 | 500 | 320 | 730 | 330 | O=C(CCCCCCC(=O)Nc1cccc(-c2cnnn2-c2ccccc2)c1)NO | 8000 | 10000 | – | 3000 | 4000 | – | 2000
